For the experiment, the target named is T1, human mPGES-1 (Homo sapiens, UniProt O14684).
T1 construct: host or cells: microsomes
T1 sequence (O14684 1-152): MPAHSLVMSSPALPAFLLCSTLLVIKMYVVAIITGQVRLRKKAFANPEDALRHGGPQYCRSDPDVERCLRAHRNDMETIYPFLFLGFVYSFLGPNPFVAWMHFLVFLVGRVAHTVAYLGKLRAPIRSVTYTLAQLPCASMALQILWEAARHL
The experiment can be described thus: Microsomal prostaglandin E synthase biochemical assay. To be noted: microsome preparation containing human mPGES-1; substrate PGH2 10.8 μM, GSH 2.5 mM, pH 6.8; PGE2 by HTRF; average of at least n=2. The procedure:
Compounds were tested as inhibitors of microsomal prostaglandin E synthase activity in microsomal prostaglandin E synthase assays and whole cell assays. These assays measure prostaglandin E2 (PGE2) synthesis which is taken as a measure of prostaglandin E synthase activity. Microsomal prostaglandin E synthase biochemical assays used microsomal prostaglandin E synthase-1 in microsomal preparations. The source of the microsomes can be for example interleukin-1β-stimulated human A549 cells (which express human mPGES-1) or Sf9 cells transfected with plasmids encoding human mPGES-1 cDNA.
A solution of test compound was added to a diluted microsome preparation containing is human mPGES-1 and pre-incubated for 15 minutes in potassium phosphate buffer pH 6.8 with cofactor glutathione (GSH). Corresponding solutions without test compound were used as positive controls, and corresponding solutions without test compound and without microsomes were used as negative controls. The enzymatic reaction was then started by addition of the substrate PGH2 in an organic solution (dry acetonitrile).
The reaction was stopped after one minute by adding an acidic solution (pH 1.9) of ferric chloride and citrate (final concentrations 7 mM and 47 mM respectively), by which the PGH2 was sequestered (the PGH2 is reduced to mainly 12-hydroxy heptadecatrineoic acid (12-HHT) which is not detected by the subsequent PGE2 detection step). The resulting solution was then pH neutralized by addition of potassium phosphate buffer, prior to diluting an aliquot of the resulting solution in a weak potassium phosphate buffer (50 mM, pH 6.8) containing 0.2% BSA (w/v). […] The PGE2 formed was quantified by use of a commercial HTRF based kit (catalogue #62PG2PEC or #62P2APEC from Cisbio International). 100% activity was defined as the PGE2 production in positive controls subtracted by the PGE2 production in the negative controls. IC50 values were then determined using standard procedures.
For orientation: Time-resolved FRET reads energy transfer from a long-lived donor to a nearby acceptor.

Take `CC(C)C#Cc1ncc(C(=O)NS(=O)(=O)c2ccccc2S(N)(=O)=O)cc1OCCC(F)(F)F` [Example 49, 6-(3-Methylbut-1-ynyl)-N-(2-sulfamoylphenylsulfonyl)-5-(3,3,3-trifluoropropoxy)nicotinamide]: the IC50 – broadly, the concentration needed to halve the response being measured – came to 13 nM. This lies in the double-digit nanomolar range. `Cc1cc(C(=O)NS(=O)(=O)c2ccccc2S(N)(=O)=O)ccc1C#CC(C)C` [Example 50, 3-Methyl-4-(3-methylbut-1-ynyl)-N-(2-sulfamoylphenylsulfonyl)benzamide] came in with an IC50 of 17 nM. In turn, `CC(C)C#Cc1ccc(C(=O)NS(=O)(=O)c2ccccc2S(N)(=O)=O)cc1OCCOCC(F)(F)F` [Example 51, 4-(3-Methylbut-1-ynyl)-N-(2-sulfamoylphenylsulfonyl)-3-(2-(2,2,2-trifluoroethoxy)ethoxy)benzamide] registered an IC50 of 26 nM.

Compound `CC(C)C#Cc1ccc(C(=O)NS(=O)(=O)c2ccccc2S(N)(=O)=O)cc1OCC(F)F` [Example 52, 3-(2,2-Difluoroethoxy)-4-(3-methylbut-1-ynyl)-N-(2-sulfamoylphenylsulfonyl)benzamide] returned an IC50 of 50 nM.

As to `CC(C)C#Cc1ccc(C(=O)NS(=O)(=O)c2ccccc2S(N)(=O)=O)cc1OCC(F)(F)F` [Example 53, 4-(3-Methylbut-1-ynyl)-N-(2-sulfamoylphenylsulfonyl)-3-(2,2,2-trifluoroethoxy)benzamide], the midpoint of inhibition, the IC50, lay at 25 nM. `CC(C)C#Cc1ccc(C(=O)NS(=O)(=O)c2ccccc2S(N)(=O)=O)cc1OC(F)(F)F` [Example 54, 4-(3-Methylbut-1-ynyl)-N-(2-sulfamoylphenylsulfonyl)-3-(trifluoromethoxy)benzamide] displayed an IC50 of 28 nM. This IC50 and that of the compound before are within 1.5-fold of each other. In turn, `CC(C)C#Cc1ccc(C(=O)NS(=O)(=O)c2ccccc2S(N)(=O)=O)cc1COCCC(F)(F)F` [Example 55, 4-(3-Methylbut-1-ynyl)-N-(2-sulfamoylphenylsulfonyl)-3-((3,3,3-trifluoropropoxy)methyl)benzamide] gave an IC50 of 80 nM. Compared with the last compound, the IC50 is about 2.9-fold higher.

For `CC(C)C#Cc1ccc(C(=O)NS(=O)(=O)c2ccccc2S(N)(=O)=O)cc1COCC(F)(F)F` [Example 56, 4-(3-Methylbut-1-ynyl)-N-(2-sulfamoylphenylsulfonyl)-3-((2,2,2-trifluoroethoxy)methyl)benzamide], the IC50 is 100 nM. This IC50 and that of the compound before are within 1.5-fold of each other.

In turn, `NS(=O)(=O)c1ccccc1S(=O)(=O)NC(=O)c1ccc(-c2cc3ccccc3o2)c(F)c1` [Example 57, 4-(Benzofuran-2-yl)-3-fluoro-N-(2-sulfamoylphenylsulfonyl)benzamide] came in with an IC50 of 8.5 nM. As for `CC(C)C#Cc1ccc(C(=O)NS(=O)(=O)c2ccccc2S(N)(=O)=O)cc1OCC(F)(F)C(F)F` [Example 58, 4-(3-Methylbut-1-ynyl)-N-(2-sulfamoylphenylsulfonyl)-3-(2,2,3,3-tetrafluoropropoxy)benzamide], the figure is 24 nM; as for `NS(=O)(=O)c1ccccc1S(=O)(=O)NC(=O)c1ccc(-c2cc3ccccc3o2)c(OCCC(F)(F)F)c1` [Example 59, 4-(Benzofuran-2-yl)-N-(2-sulfamoylphenylsulfonyl)-3-(3,3,3-trifluoropropoxy)benzamide], 8.5 nM.

Regarding `CC(C)(C)C#Cc1ccc(C(=O)NS(=O)(=O)c2ccccc2S(N)(=O)=O)cc1OCCC(F)(F)F` [Example 60, 4-(3,3-Dimethylbut-1-ynyl)-N-(2-sulfamoylphenylsulfonyl)-3-(3,3,3-trifluoropropoxy)benzamide], the half-maximal inhibitory concentration (IC50) was found to be 30 nM. Take `CC(C)(C)C#Cc1ccc(C(=O)NS(=O)(=O)c2ccccc2S(N)(=O)=O)cc1OCCOCC(F)(F)F` [Example 61, 4-(3,3-Dimethylbut-1-ynyl)-N-(2-sulfamoylphenylsulfonyl)-3-(2-(2,2,2-trifluoroethoxy)ethoxy)benzamide]: the IC50 came to 27 nM. Compound `NS(=O)(=O)c1ccccc1S(=O)(=O)NC(=O)c1ccc(-c2cc3ccccc3o2)c(OCCOCC(F)(F)F)c1` [Example 62, 4-(Benzofuran-2-yl)-N-(2-sulfamoylphenylsulfonyl)-3-(2-(2,2,2-trifluoroethoxy)ethoxy)benzamide] registered an IC50 of 9.1 nM. This IC50 is about 3-fold lower than that of the compound before. Regarding `NS(=O)(=O)c1ccccc1S(=O)(=O)NC(=O)c1ccc(C#Cc2ccccc2)c(OCCOCC(F)(F)F)c1` [Example 63, 4-(Phenylethynyl)-N-(2-sulfamoylphenylsulfonyl)-3-(2-(2,2,2-trifluoroethoxy)ethoxy)benzamide], the IC50 came out at 9.3 nM. Take `CC(C)C#Cc1ccc(C(=O)NS(=O)(=O)c2ccccc2S(N)(=O)=O)cc1OCCCC(F)(F)F` [Example 64, 4-(3-Methylbut-1-ynyl)-N-(2-sulfamoylphenylsulfonyl)-3-(4,4,4-trifluorobutoxy)benzamide]: it took 15 nM to reach half-maximal inhibition (IC50). Turning to `NS(=O)(=O)c1ccccc1S(=O)(=O)NC(=O)c1ccc(C#Cc2ccccc2)c(OCCC(F)(F)F)c1` [Example 65, 4-(Phenylethynyl)-N-(2-sulfamoylphenylsulfonyl)-3-(3,3,3-trifluoropropoxy)benzamide], 6.2 nM corresponded to half-maximal inhibition (IC50). Compound `NS(=O)(=O)c1ccccc1S(=O)(=O)NC(=O)c1ccc(C#CC2CCCC2)c(OCCC(F)(F)F)c1` [Example 66, 4-(Cyclopentylethynyl)-N-(2-sulfamoylphenylsulfonyl)-3-(3,3,3-trifluoropropoxy)benzamide] returned an IC50 of 9.4 nM.

Regarding `NS(=O)(=O)c1ccccc1S(=O)(=O)NC(=O)c1ccc(C#CC2CCCC2)c(OCCOCC(F)(F)F)c1` [Example 67, 4-(Cyclopentylethynyl)-N-(2-sulfamoylphenylsulfonyl)-3-(2-(2,2,2-trifluoroethoxy)ethoxy)benzamide], 9.6 nM corresponded to half-maximal inhibition (IC50).

Regarding `NS(=O)(=O)c1ccccc1S(=O)(=O)NC(=O)c1ccc(C#CC2CCCC2)c(OCCC(F)F)c1` [Example 68, 4-(Cyclopentylethynyl)-3-(3,3-difluoropropoxy)-N-(2-sulfamoylphenylsulfonyl)benzamide], inhibition was half-maximal at 12 nM (IC50). The IC50 values of the last two compounds are within 1.5-fold of each other. The compound `NS(=O)(=O)c1ccccc1S(=O)(=O)NC(=O)c1ccc(C#CC2CCCC2)c(OCCCC(F)(F)F)c1` [Example 69, 4-(Cyclopentylethynyl)-N-(2-sulfamoylphenylsulfonyl)-3-(4,4,4-trifluorobutoxy)benzamide] returned an IC50 of 11 nM. This IC50 and that of the compound before are within 1.5-fold of each other. As for `Cc1ccc(C#Cc2ccc(C(=O)NS(=O)(=O)c3ccccc3S(N)(=O)=O)cc2OCCC(F)F)cc1` [Example 70, 3-(3,3-Difluoropropoxy)-N-(2-sulfamoylphenylsulfonyl)-4-(p-tolylethynyl)benzamide], the figure is 7.8 nM; as for `CC(C)C#Cc1ccc(C(=O)NS(=O)(=O)c2ccccc2S(N)(=O)=O)cc1OCCC(F)F` [Example 71, 3-(3,3-Difluoropropoxy)-4-(3-methylbut-1-ynyl)-N-(2-sulfamoylphenylsulfonyl)benzamide], 31 nM. The same measure for `CC(C)C#Cc1ccc(C(=O)NS(=O)(=O)c2ccccc2S(N)(=O)=O)cc1OCCCF` [Example 72, 3-(3-Fluoropropoxy)-4-(3-methylbut-1-ynyl)-N-(2-sulfamoylphenylsulfonyl)benzamide]: 43 nM. `COc1cc(C(=O)NS(=O)(=O)c2ccccc2S(N)(=O)=O)ccc1C#Cc1ccccc1` [Example 73, 3-Methoxy-4-(phenylethynyl)-N-(2-sulfamoylphenylsulfonyl)benzamide] came in with an IC50 of 24 nM. The same measure for `COc1cc(C(=O)NS(=O)(=O)c2ccccc2S(N)(=O)=O)ccc1C#CC(C)C` [Example 74, 3-Methoxy-4-(3-methylbut-1-ynyl)-N-(2-sulfamoylphenylsulfonyl)benzamide]: 190 nM. In the case of `NS(=O)(=O)c1cc(O)ccc1S(=O)(=O)NC(=O)c1ccc(-c2cc3ccccc3o2)cc1` [Example 75, 4-Hydroxy-benzene-1,2-disulfonic acid 2-amide 1-(4-benzofuran-2-yl-benzoylamide)], the IC50 is 26 nM. `COc1ccc(S(=O)(=O)NC(=O)c2ccc(-c3cc4ccccc4o3)cc2)c(S(N)(=O)=O)c1` [Example 76, 4-methoxy-benzene-1,2-disulfonic acid 2-amide 1-(4-benzofuran-2-yl-benzoylamide)] gave an IC50 of 530 nM.

`CC(C)(C)C#Cc1ccc(C(=O)NS(=O)(=O)c2ccc(O)cc2S(N)(=O)=O)cc1` [Example 77, 4-Hydroxy-benzene-1,2-disulfonic acid 2-amide 1-[4-(3,3-dimethyl-but-1-ynyl)-benzoylamide]]: half-maximal inhibition (IC50) required 61 nM. Compound `COc1ccc(S(=O)(=O)NC(=O)c2ccc(C#CC(C)(C)C)cc2)c(S(N)(=O)=O)c1` [Example 78, 4-methoxy-benzene-1,2-disulfonic acid 2-amide 1-[4-(3,3-dimethyl-but-1-ynyl)-benzoylamide]] yielded a concentration for half-maximal inhibition (IC50) of 2200 nM. This IC50 is about 36-fold higher than that of the compound before.
